{"source": "patent US7906491B2", "about": "(Univisitair Medisch Centrum Utrecht, priority 2002, dated 2011)", "key": {"[1]": {"system": "INS-1 insulin-secreting cells", "conditions": "cited from earlier work"}, "Rap1": {"system": "Rap1", "assay": "Rap1 activation assay in Ovcar3 cells", "assay_type": "cell-based", "description": "(§1) A: 8-pCPT-2′-O-Me-cAMP stimulates cell adhesion. Upper panel: quantification of Ovcar3 cells adhering to fibronectin after treatment with increasing concentrations of 8-pCPT-2′-O-Me-cAMP. Lower panel: Ovcar3 cells were treated with increasing concentrations of 8-pCPT-2′-O-Me-cAMP for 15 min, cells were lysed and analyzed for activation of Rap1 (upper blot) and CREB (lower blot). Total Rap1 levels are shown (middle blot). B: 8-pCPT-2′-O-Me-cAMP increases the rate of cell adhesion. Upper panel: quantification of Ovcar3 cells adhering to fibronectin at various time points. Lower panel: cells were treated with 60 μM 8-pCPT-2′-O-Me-cAMP for the indicated times. Cell lysates were analyzed for activation of Rap1 (upper blot) and CREB (lower blot). Total levels of Rap1 in cell lysates are shown (middle blot). C: Ovcar3 cells were either pre-incubated at 37° C. for 30 min with the PKA inhibitor H-89 (10 μM) 30 min prior to seeding onto the wells (‘Short’) or H-89 was added 30 min prior to trypsinization and during the recovery period (‘Long’) and seeded onto wells in the absence or presence of 8-pCPT-2′-O-Me-cAMP (100 μM). Cells were allowed to adhere for 1 h. D, cAMP-induced adhesion to fibronectin is blocked by inhibitors of Rap1. Left panel: Ovcar3 cells were transiently transfected with either mock DNA, increasing concentrations of HA-Rap1GAP II (0.5, 1, 2 or 6 μg, respectively), HA-Rap1GAPI (6 μg) or HA-RBD of RalGDS (6 μg), respectively. Cells were treated with 8-Br-cAMP or 8-pCPT-2′-O-Me-cAMP and adhesion to fibronectin was determined. Right upper panel: luciferase counts of total input cells per well in the above experiment are shown. Right lower panel: expression of HA-Rap1GAPs in the above experiment is shown.\nRap activation assays were performed as described previously (16-18). […] Proteins were eluted with Laemmli sample buffer and analyzed by sodium dodecyl sulphate (SDS)-polyacrylamide gel electrophoresis and Western blotting using Rap1 antibodies. As a control, Rap1 levels in whole cell lysates were determined."}, "CREB": {"system": "CREB", "assay": "CREB phosphorylation (read-out for PKA) in NIH3T3-A14-Epac1 cells", "assay_type": "cell-based", "conditions": "concentration as high as 100 μM", "description": "Upper panel: NIH3T3-A14-Epac1 cells were treated for 15 min with 8-Br-cAMP, and cell lysates were analyzed for activation of Rap1 and phosphorylation of CREB. Lower panel: NIH3T3-A14-Epac1 cells were treated in duplicate for 15 min with increasing concentrations of 8-pCPT-2′-O-Me-cAMP. Cells were lysed and equal amounts of cell lysate were incubated with precoupled GST-RalGDSRBD and Rap1 was assayed by immunoblotting with Rap1 antibody.\nTherefore, 8-CPT-2′-O-Me-cAMP was tested in NIH3T3-A14-Epac1 cells for the activation of Epac, using Rap1 as a read-out, and of PKA, using phosphorylation of the common PKA substrate CREB 29 as a read-out.\nAntibodies against phosphorylated CREB (directed against phosphorylated Serl33) were obtained from Cell Signalling (Beverly, Mass., USA), and antibodies against K-Rev/Rap1 and polyclonal anti-HA were obtained from Santa Cruz Biotechnology (Santa Cruz, Calif., USA). The following inhibitors and stimuli were used at concentrations indicated, unless stated otherwise: RGD peptide (100 μM) and H-89 (10 μM) was obtained from Biomol Research Laboratories Inc. (Plymouth Meeting, Pa., USA). 8-Br-cAMP (1 mM) was obtained from BIOLOG Life Science Institute (Bremen, Germany). TPA (12-O-tetradecanoylphorbol-13-acetate) was obtained from Sigma (Steinheim, Germany) and was used at a concentration of 100 ng/ml. […]"}, "Ovcar3 cells": {"system": "Ovcar3 cells", "assay": "Adhesion assay of Ovcar3 cells to fibronectin", "assay_type": "cell-based", "description": "as §1, with “Right upper panel: luciferase counts of total input cells per well in the above experiment are shown. Right lower panel: expression of HA-Rap1GAPs in the above experiment is shown.” left out\nIn functional assays, 8-pCPT-2′-O-Me-cAMP appeared to induce integrin-mediated cell adhesion through Epac and Rap1. […] The cells were seeded onto fibronectin-coated plates in the presence or absence of 8-pCPT-2′-O-Me-cAMP and the amount of cells that adhered after a certain period of time was quantified. […]\n24-well plates were coated overnight with 2 μg/ml fibronectin (Sigma, St. Louis, Mo., USA) in sodium bicarbonate buffer (Sigma, St. Louis, Mo., USA). […] Cells were centrifuged, counted and resuspended at 3×10^5 cells/ml in serum-free RPMI with 0.5% BSA. […]"}, "PKAII": {"system": "PKAII", "assay": "Relative affinity for PKAII (cAMP = 1), in vitro", "assay_type": "binding", "conditions": "relative to cAMP = 1"}, "[2]": {"system": "extracellular signal-regulated kinase (ERK)", "assay": "ERK activation / inactivation in vivo (cells)", "assay_type": "cell-based"}}}
{"smiles": "CO[C@@H]1[C@@H]2OP(=O)(O)OC[C@H]2O[C@H]1n1c(Sc2ccc(Cl)cc2)nc2c(N)ncnc21", "note": "[Compound I-007, 8-(4-chloro-phenylthio)-2′-O-methyladenosine-3′,5′-cyclic monophosphate]", "values": [{"measurement": "exocytosis", "setting": "[1]", "value": "induces exocytosis"}, {"measurement": "mobilization of Ca2+ from intracellular Ca2+ stores via Epac-mediated CICR", "setting": "[1]", "value": "can induce mobilization of Ca^2+"}, {"measurement": "Rap1 activation in time-course", "setting": "Rap1; 60 μM, FIG. 7B", "value": "rapid and sustained Rap1 activation"}, {"measurement": "EC50", "setting": "Rap1; Homo sapiens, OVCAR-3, 0.25 h, 15 min, FIG. 7A", "value": "~30", "unit": "µM"}, {"measurement": "CREB phosphorylation", "setting": "CREB", "value": "did not induce CREB phosphorylation"}, {"measurement": "EC50", "setting": "Ovcar3 cells; Homo sapiens, OVCAR-3, FIG. 7A, read-out: EC50 of enhanced cell adhesion to fibronectin", "value": "~30", "unit": "µM"}, {"measurement": "time after which increased adhesion was already observed", "setting": "Ovcar3 cells; fibronectin, time-course, FIG. 7B", "value": 30, "unit": "min"}, {"measurement": "Relative affinity CAMP = 1 PKAII", "setting": "PKAII", "value": 0.003}, {"measurement": "activation and inactivation of ERK", "setting": "[2]", "value": "affected neither the activation nor the inactivation"}]}
